Reference: patent publication US11365199B2, “Pyrazole compounds as modulators of FSHR and uses thereof” (Merck Patent GmbH, priority 2013, dated 2022)

These compounds were tested against T1, FSHR (Homo sapiens, UniProt P23945) (assay: EC50 of cyclic AMP production in CHO FSHR cells + EC20 FSH (Assay A)). Details: not given.
T1 construct: expressed in transfected cells; host or cells: CHO (Cho-FSHR-LUC-1-1-43)
T1 sequence (P23945 18-695): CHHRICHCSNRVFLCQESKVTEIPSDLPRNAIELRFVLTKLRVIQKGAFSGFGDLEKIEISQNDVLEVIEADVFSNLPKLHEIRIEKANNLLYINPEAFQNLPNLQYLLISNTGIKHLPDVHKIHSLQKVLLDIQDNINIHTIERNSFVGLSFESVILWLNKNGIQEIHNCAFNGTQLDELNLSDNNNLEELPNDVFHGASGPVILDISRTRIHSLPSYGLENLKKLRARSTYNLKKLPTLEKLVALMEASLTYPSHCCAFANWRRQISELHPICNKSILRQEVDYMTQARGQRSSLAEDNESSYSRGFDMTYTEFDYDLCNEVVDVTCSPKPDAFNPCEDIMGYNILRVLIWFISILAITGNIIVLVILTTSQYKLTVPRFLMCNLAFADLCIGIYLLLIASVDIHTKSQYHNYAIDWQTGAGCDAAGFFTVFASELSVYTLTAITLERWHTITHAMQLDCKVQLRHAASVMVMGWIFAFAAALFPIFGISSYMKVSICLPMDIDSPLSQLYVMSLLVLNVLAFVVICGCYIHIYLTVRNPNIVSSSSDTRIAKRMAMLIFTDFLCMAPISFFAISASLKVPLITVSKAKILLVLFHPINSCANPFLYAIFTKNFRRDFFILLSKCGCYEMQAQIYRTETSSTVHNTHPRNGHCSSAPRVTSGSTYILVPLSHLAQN
Format: cell-based
In short: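 Cho-FSHR-LUC cells were exposed to compound dilution series with EC20 FSH ([…]) and 200 μM IBMX for 1 h at 37° C. cAMP was read by HTRF (665/620 nm ratio). Effects are percent of the maximal FSH standard response.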

| Structure (SMILES) | EC50 |
| --- | --- |
| COc1ccc2c(c1)OCc1c(C(=O)N(C)C(C)(C)C)nn(-c3ccsc3)c1-2 [Compound 133, 7-Methoxy-1-thiophen-3-yl-1,4-dihydro-chromeno[4,3-c]pyrazole-3-carboxylic Acid tert-butyl-methyl-amide] | 1000 to 5000 nM |

Same assay, conditions: CHO FSHR cells + EC20 FSH, cAMP HTRF; read-out: Assay A: EC50 of cyclic AMP production

| EC50 | Structure (SMILES) |
| --- | --- |
| > 5000 nM | COc1cc2c(cc1-c1c[nH]nc1C)-c1c(c(C(=O)NC3CC(O)C3)nn1-c1ccsc1)CO2 (centres unmarked) [Compound 138, 7-Methoxy-8-(3-methyl-1H-pyrazol-4-yl)-1-thiophen-3-yl-1,4-dihydro-chromeno[4,3-c]pyrazole-3-carboxylic acid (3-hydroxy-cyclobutyl)-amide] |
| 1000 to 5000 nM | [2H]C([2H])([2H])N(C(=O)c1nn(-c2ccsc2)c2c1COc1cc(OC)c(-c3ccn(C)n3)cc1-2)C1CCOC1 (centres unmarked) [Compound 140] |
| 1000 to 5000 nM | COc1cc2c(cc1CC(C)C)-c1c(c(C(=O)NC3(CO)COC3)nn1-c1ccsc1)CO2 [Compound 141, 8-Isobutyl-7-methoxy-1-thiophen-3-yl-1,4-dihydro-chromeno[4,3-c]pyrazole-3-carboxylic acid (3-hydroxymethyl-oxetan-3-yl)-amide] |
| > 5000 nM | [2H]C([2H])([2H])OC1CC(N(C(=O)c2nn(-c3ccsc3)c3c2COc2cc(OC)c(-c4ccn(C)c4)cc2-3)C([2H])([2H])[2H])C1 (centres unmarked) [Compound 142] |
| 100 to 1000 nM | [2H]C([2H])([2H])N(C(=O)c1nn(-c2ccsc2)c2c1COc1cc(OC)c(-c3cn(C([2H])([2H])[2H])nc3C)cc1-2)C1CCOC1 (centres unmarked) [Compound 143] |
| < 100 nM | COc1cc2c(cc1-c1ccn(C)n1)-c1c(c(C(=O)N3CCOCC3C(F)(F)F)nn1-c1ccsc1)CO2 (centres unmarked) [Compound 144, [7-Methoxy-8-(1-methyl-1H-pyrazol-3-yl)-1-thiophen-3-yl-1,4-dihydro-chromeno[4,3-c]pyrazol-3-yl]-(3-trifluoromethyl-morpholin-4-yl)-methanone] |
| 100 to 1000 nM | COc1cc2c(cc1CC(C)C)-c1c(c(C(=O)NC3(C)COC3)nn1-c1ccsc1)CO2 [Compound 145, 8-Isobutyl-7-methoxy-1-thiophen-3-yl-1,4-dihydro-chromeno[4,3-c]pyrazole-3-carboxylic acid (3-methyl-oxetan-3-yl)-amide] |
| < 100 nM | CCOCn1cc(-c2cc3c(cc2OC)OCc2c(C(=O)N(C)C(C)(C)C)nn(-c4ccsc4)c2-3)nn1 [Compound 152, 8-(1-Ethoxymethyl-1H-[1,2,3]triazol-4-yl)-7-methoxy-1-thiophen-3-yl-1,4-dihydro-chromeno[4,3-c]pyrazole-3-carboxylic acid tert-butyl-methyl-amide] |
| > 5000 nM | COc1cc2c(cc1-c1ccn(C)c1)-c1c(c(C(=O)N3CCN(C(C)=O)CC3)nn1-c1ccsc1)CO2 [Compound 155, 1-{4-[7-Methoxy-8-(1-methyl-1H-pyrrol-3-yl)-1-thiophen-3-yl-1,4-dihydro-chromeno[4,3-c]pyrazole-3-carbonyl]-piperazin-1-yl}-ethanone] |
| 100 to 1000 nM | COc1cc2c(cc1-c1ccn(C)n1)-c1c(c(C(=O)N3CCN(C(=O)OC(C)(C)C)CC3(C)C)nn1-c1ccsc1)CO2 [Compound 156, 4-[7-Methoxy-8-(1-methyl-1H-pyrazol-3-yl)-1-thiophen-3-yl-1,4-dihydro-chromeno[4,3-c]pyrazole-3-carbonyl]-3,3-dimethyl-piperazine-1-carboxylic acid tert-butyl ester] |

The remaining lines, values behind:

| Structure (SMILES) | EC50 |
| --- | --- |
| [2H]C([2H])([2H])N(C(=O)c1nn(-c2ccsc2)c2c1COc1cc(OC)c(-c3ccnn3C)cc1-2)C1(C)COC1 [Compound 118] | < 100 nM |
| COc1cc2c(cc1-c1cc(C)n(C)c1C)-c1c(c(C(=O)N3CCOCC3(C)C)nn1-c1ccsc1)CO2 [Compound 120, (3,3-Dimethyl-morpholin-4-yl)-[7-methoxy-1-thiophen-3-yl-8-(1,2,5-trimethyl-1H-pyrrol-3-yl)-1,4-dihydro-chromeno[4,3-c]pyrazol-3-yl]-methanone] | < 100 nM |
| COc1cc2c(cc1-c1cn(C)nc1C)-c1c(c(C(=O)N3CCOCC3(C)C)nn1-c1ccsc1)CO2 [Compound 123, (3,3-Dimethyl-morpholin-4-yl)-[8-(1,3-dimethyl-1H-pyrazol-4-yl)-7-methoxy-1-thiophen-3-yl-1,4-dihydro-chromeno[4,3-c]pyrazol-3-yl]-methanone] | < 100 nM |
| COc1cc2c(cc1-c1cnn(C)c1C)-c1c(c(C(=O)N3CCOCC3(C)C)nn1-c1ccsc1)CO2 [Compound 124, (3,3-Dimethyl-morpholin-4-yl)-[8-(1,5-dimethyl-1H-pyrazol-4-yl)-7-methoxy-1-thiophen-3-yl-1,4-dihydro-chromeno[4,3-c]pyrazol-3-yl]-methanone] | < 100 nM |
| COc1cc2c(cc1S(=O)(=O)CC(C)C)-c1c(c(C(=O)N3CCOCC3(C)C)nn1-c1ccsc1)CO2 [Compound 127, (3,3-Dimethyl-morpholin-4-yl)-[7-methoxy-8-(2-methyl-propane-1-sulfonyl)-1-thiophen-3-yl-1,4-dihydro-chromeno[4,3-c]pyrazol-3-yl]-methanone] | > 5000 nM |
| COc1ccc2c(c1)OCc1c(C(=O)N3CCOCC3(C)C)nn(-c3ccsc3)c1-2 [Compound 128, (3,3-Dimethyl-morpholin-4-yl)-(7-methoxy-1-thiophen-3-yl-1,4-dihydro-chromeno[4,3-c]pyrazol-3-yl)-methanone] | > 5000 nM |
| COc1cc2c(cc1-c1cn(C)cn1)-c1c(c(C(=O)N(C)C(C)(C)C)nn1-c1ccsc1)CO2 [Compound 129, 7-Methoxy-8-(1-methyl-1H-imidazol-4-yl)-1-thiophen-3-yl-1,4-dihydro-chromeno[4,3-c]pyrazole-3-carboxylic acid tert-butyl-methyl-amide] | < 100 nM |
| COc1cc2c(cc1-c1cncn1C)-c1c(c(C(=O)N(C)C(C)(C)C)nn1-c1ccsc1)CO2 [Compound 130, 7-Methoxy-8-(3-methyl-3H-imidazol-4-yl)-1-thiophen-3-yl-1,4-dihydro-chromeno[4,3-c]pyrazole-3-carboxylic acid tert-butyl-methyl-amide] | < 100 nM |
| COc1cc2c(cc1C1=CCCN(C)C1)-c1c(c(C(=O)N(C)C(C)(C)C)nn1-c1ccsc1)CO2 [Compound 134, 7-Methoxy-8-(1-methyl-1,2,5,6-tetrahydro-pyridin-3-yl)-1-thiophen-3-yl-1,4-dihydro-chromeno[4,3-c]pyrazole-3-carboxylic acid tert-butyl-methyl-amide] | 100 to 1000 nM |
| COc1cc2c(cc1-c1c[nH]nc1C)-c1c(c(C(=O)NC3CCOC3)nn1-c1ccsc1)CO2 (centres unmarked) [Compound 135, 7-Methoxy-8-(3-methyl-1H-pyrazol-4-yl)-1-thiophen-3-yl-1,4-dihydro-chromeno[4,3-c]pyrazole-3-carboxylic acid (tetrahydro-furan-3-yl)-amide] | 1000 to 5000 nM |
| COc1cc2c(cc1-c1ccn(C)c1)-c1c(c(C(=O)NC3CC(O)C3)nn1-c1ccsc1)CO2 (centres unmarked) [Compound 136, 7-Methoxy-8-(1-methyl-1H-pyrrol-3-yl)-1-thiophen-3-yl-1,4-dihydro-chromeno[4,3-c]pyrazole-3-carboxylic acid (3-hydroxy-cyclobutyl)-amide] | > 5000 nM |
| COc1cc2c(cc1-c1ccn(C)n1)-c1c(c(C(=O)NC3CC(O)C3)nn1-c1ccsc1)CO2 (centres unmarked) [Compound 137, 7-Methoxy-8-(1-methyl-1H-pyrazol-3-yl)-1-thiophen-3-yl-1,4-dihydro-chromeno[4,3-c]pyrazole-3-carboxylic acid (3-hydroxy-cyclobutyl)-amide] | 1000 to 5000 nM |
